“And” between values parts separate entries of the source, which are not always exact repeats. Equal entries are not always repeated.
Test: Patient incidence of adverse events (CTCAE version 4.0)
Format: in vivo
Source text: Each patient was monitored for 21 days for the occurrence of dose-limiting toxicities (DLTs), defined as febrile neutropenia, neutropenic infection, grade 4 neutropenia lasting >7 days, grade ≥ 3 thrombocytopenia lasting >7 days (solid tumors only), grade 3 thrombocytopenia with grade ≥ 2 bleeding (solid tumors only), grade 3 or 4 thrombocytopenia with grade > 1 bleeding (multiple myeloma only), grade 4 thrombocytopenia (solid tumors only), or grade 4 thrombocytopenia lasting >14 days (multiple myeloma only), or as grade ≥ 3 nausea, vomiting, or diarrhea after support; grade 3 fatigue lasting >7 days; any other grade ≥ 3 adverse event (AE); grade ≥ 3 kidney injury (multiple myeloma only), or treatment-related AEs not returning to grade ≤ 1 (solid tumors only) per Common Terminology Criteria for Adverse Events (CTCAE), version 4.0. The MTD was defined as the maximum dose, at which the probability of a DLT was ≤25% in Part 1A and ≤ 33% in Parts 1B and 1C. Treatment continued until disease progression, intolerable toxicity, or withdrawal of consent.
AEs were recorded for all enrolled patients.

[1] = dose escalation, 300 mg (n = 4)
[2] = dose escalation, 360 mg (n = 4)
[3] = dose escalation, 480 mg (n = 6)
[4] = dose escalation, Total (n = 39)

## CC(C)[C@@H](CS(=O)(=O)C(C)C)N1C(=O)[C@@](C)(CC(=O)O)C[C@H](c2cccc(Cl)c2)[C@H]1c1ccc(Cl)cc1 [AMG 232]
[1]
  Treatment-related AE: Upper abdominal pain: 1 (25) n (%)
  Treatment-related AE: Vomiting: 3 (75) n (%)
  Treatment-related serious AE: Abdominal pain (grade 2): 0 n (%)
  Treatment-related serious AE: Dehydration (grade 2): 1 (25) n (%)
  Treatment-related serious AE: Diarrhea: 1 (25) n (%)
  Treatment-related serious AE: Diarrhea, Grade 2: 0 n (%)
  Treatment-related serious AE: Diarrhea, Grade 3: 1 (25) n (%)
  Treatment-related serious AE: Febrile neutropenia (grade 3): 1 (25) n (%)
  Treatment-related serious AE: Hematemesis (grade 3): 0 n (%)
  Treatment-related serious AE: Nausea (grade 3): 0 n (%)
  Treatment-related serious AE: Neutropenia (grade 4): 0 n (%)
  Treatment-related serious AE: Non-cardiac chest pain (grade 3): 0 n (%)
  Treatment-related serious AE: Thrombocytopenia (grade 4): 0 n (%)
  Treatment-related serious AE: Vomiting: 2 (50) n (%)
  Treatment-related serious AE: Vomiting, Grade 2: 1 (25) n (%)
  Treatment-related serious AE: Vomiting, Grade 3: 1 (25) n (%)
[2]
  Patients with any treatment-emergent AE: 4 (100) n (%)
  Patients with any treatment-emergent serious AE: 0 n (%)
  Patients with any treatment-related AE: 4 (100) n (%)
  Patients with any treatment-related AE, Grade 3: 3 (75) n (%)
  Patients with any treatment-related AE, Grade 4: 2 (50) n (%)
  Patients with any treatment-related AE, Grade 5: 0 n (%)
  Patients with any treatment-related serious AE: 0 n (%)
  Treatment-related AE: Abdominal pain: 1 (25) n (%)
  Treatment-related AE: Anemia: 2 (50) n (%)
  Treatment-related AE: Asthenia: 2 (50) n (%)
  Treatment-related AE: Decrease appetite: 3 (75) n (%)
  Treatment-related AE: Diarrhea: 4 (100) n (%)
  Treatment-related AE: Dysgeusia: 1 (25) n (%)
  Treatment-related AE: Fatigue: 0 n (%)
  Treatment-related AE: Myalgia: 2 (50) n (%)
  Treatment-related AE: Nausea: 4 (100) n (%)
  Treatment-related AE: Neutropenia: 3 (75) n (%)
  Treatment-related AE: Thrombocytopenia: 4 (100) n (%)
  Treatment-related AE: Upper abdominal pain: 1 (25) n (%)
  Treatment-related AE: Vomiting: 3 (75) n (%)
  Treatment-related serious AE: Abdominal pain (grade 2): 0 n (%)
  Treatment-related serious AE: Dehydration (grade 2): 0 n (%)
  Treatment-related serious AE: Diarrhea: 0 n (%)
  Treatment-related serious AE: Diarrhea, Grade 2: 0 n (%)
  Treatment-related serious AE: Diarrhea, Grade 3: 0 n (%)
  Treatment-related serious AE: Febrile neutropenia (grade 3): 0 n (%)
  Treatment-related serious AE: Hematemesis (grade 3): 0 n (%)
  Treatment-related serious AE: Nausea (grade 3): 0 n (%)
  Treatment-related serious AE: Neutropenia (grade 4): 0 n (%)
  Treatment-related serious AE: Non-cardiac chest pain (grade 3): 0 n (%)
  Treatment-related serious AE: Thrombocytopenia (grade 4): 0 n (%)
  Treatment-related serious AE: Vomiting: 0 n (%)
  Treatment-related serious AE: Vomiting, Grade 2: 0 n (%)
  Treatment-related serious AE: Vomiting, Grade 3: 0 n (%)
[3]
  Patients with any treatment-emergent AE: 6 (100) n (%)
  Patients with any treatment-emergent serious AE: 4 (67) n (%)
  Patients with any treatment-related AE: 6 (100) n (%)
  Patients with any treatment-related AE, Grade 3: 3 (50) n (%)
  Patients with any treatment-related AE, Grade 4: 3 (50) n (%)
  Patients with any treatment-related AE, Grade 5: 0 n (%)
  Patients with any treatment-related serious AE: 2 (33) n (%)
  Treatment-related AE: Abdominal pain: 0 n (%)
  Treatment-related AE: Anemia: 2 (33) n (%)
  Treatment-related AE: Asthenia: 0 n (%)
  Treatment-related AE: Decrease appetite: 1 (17) n (%)
  Treatment-related AE: Diarrhea: 6 (100) n (%)
  Treatment-related AE: Dysgeusia: 0 n (%)
  Treatment-related AE: Fatigue: 4 (67) n (%)
  Treatment-related AE: Myalgia: 1 (17) n (%)
  Treatment-related AE: Nausea: 3 (50) n (%)
  Treatment-related AE: Neutropenia: 3 (50) n (%)
  Treatment-related AE: Thrombocytopenia: 5 (83) n (%)
  Treatment-related AE: Upper abdominal pain: 0 n (%)
  Treatment-related AE: Vomiting: 4 (67) n (%)
  Treatment-related serious AE: Abdominal pain (grade 2): 0 n (%)
  Treatment-related serious AE: Dehydration (grade 2): 0 n (%)
  Treatment-related serious AE: Diarrhea: 0 n (%)
  Treatment-related serious AE: Diarrhea, Grade 2: 0 n (%)
  Treatment-related serious AE: Diarrhea, Grade 3: 0 n (%)
  Treatment-related serious AE: Febrile neutropenia (grade 3): 0 n (%)
  Treatment-related serious AE: Hematemesis (grade 3): 1 (17) n (%)
  Treatment-related serious AE: Nausea (grade 3): 0 n (%)
  Treatment-related serious AE: Neutropenia (grade 4): 1 (17) n (%)
  Treatment-related serious AE: Non-cardiac chest pain (grade 3): 0 n (%)
  Treatment-related serious AE: Thrombocytopenia (grade 4): 2 (33) n (%)
  Treatment-related serious AE: Vomiting: 0 n (%)
  Treatment-related serious AE: Vomiting, Grade 2: 0 n (%)
  Treatment-related serious AE: Vomiting, Grade 3: 0 n (%)
[4]
  Patients with any treatment-emergent AE: 37 (95%) n (%) and 37 (95) n (%)
  Patients with any treatment-emergent serious AE: 14 (36%) n (%) and 14 (36) n (%)
  Patients with any treatment-related AE, Grade 3: 13 (33) n (%)
  Patients with any treatment-related AE, Grade 4: 8 (21) n (%)
  Patients with any treatment-related AE, Grade 5: 0 n (%)
  Treatment-related AE: Abdominal pain: 4 (10) n (%)
  Treatment-related AE: Anemia: 5 (13) n (%)
  Treatment-related AE: Asthenia: 4 (10) n (%)
  Treatment-related AE: Decrease appetite: 10 (26) n (%)
  Treatment-related AE: Diarrhea: 25 (64) n (%)
  Treatment-related AE: Dysgeusia: 4 (10) n (%)
  Treatment-related AE: Fatigue: 16 (41) n (%)
  Treatment-related AE: Myalgia: 4 (10) n (%)
  Treatment-related AE: Nausea: 20 (51) n (%)
  Treatment-related AE: Neutropenia: 8 (21) n (%)
  Treatment-related AE: Thrombocytopenia: 14 (36) n (%)
  Treatment-related AE: Upper abdominal pain: 4 (10) n (%)
  Treatment-related AE: Vomiting: 18 (46) n (%)
  Treatment-related serious AE: Abdominal pain (grade 2): 1 (3) n (%)
  Treatment-related serious AE: Dehydration (grade 2): 1 (3) n (%)
  Treatment-related serious AE: Diarrhea: 2 (5) n (%)
  Treatment-related serious AE: Diarrhea, Grade 2: 1 (3) n (%)
  Treatment-related serious AE: Diarrhea, Grade 3: 1 (3) n (%)
  Treatment-related serious AE: Febrile neutropenia (grade 3): 1 (3) n (%)
  Treatment-related serious AE: Hematemesis (grade 3): 1 (3) n (%)
  Treatment-related serious AE: Nausea (grade 3): 1 (3) n (%)
  Treatment-related serious AE: Neutropenia (grade 4): 1 (3) n (%)
  Treatment-related serious AE: Non-cardiac chest pain (grade 3): 1 (3) n (%)
  Treatment-related serious AE: Thrombocytopenia (grade 4): 2 (5) n (%)
  Treatment-related serious AE: Vomiting: 3 (8) n (%)
  Treatment-related serious AE: Vomiting, Grade 2: 1 (3) n (%)
  Treatment-related serious AE: Vomiting, Grade 3: 2 (5) n (%)
Dose escalation, all patients
  Treatment-emergent AE: abdominal pain: 21%
  Treatment-emergent AE: anemia: 26%
  Treatment-emergent AE: decreased appetite: 39%
  Treatment-emergent AE: diarrhea: 67%
  Treatment-emergent AE: fatigue: 41%
  Treatment-emergent AE: nausea: 59%
  Treatment-emergent AE: neutropenia: 26%
  Treatment-emergent AE: thrombocytopenia: 36%
  Treatment-emergent AE: vomiting: 51%
  Treatment-related AE: Diarrhea: 64%
  Treatment-related AE: Fatigue: 41%
  Treatment-related AE: Nausea: 51%
  Treatment-related AE: Neutropenia: 21%
  Treatment-related AE: Thrombocytopenia: 36%
  Treatment-related AE: Vomiting: 46%
  Treatment-related AE: decreased appetite: 26%
Entire study (107 patients)
  Patients discontinuing treatment due to AEs: 21 n

Source: publication PMC7211202 (Investigational New Drugs, 2019)
